Earlier results, collected in patent US6573290B1 (ILEX Oncology, Inc., priority 1999, dated 2003).
Each block holds one compound with its values, some of them ahead of it.

Experiments:
[1] = system: Ki-ras mutations; details: AOM-treated rats; reduced from 90%
[2] = system: tumor putrescine; details: DFMO infusion, rat-tumor model
[3] = not given; remark: listed apart in the source
[4] = system: prostoglandin E2 (PGE2); details: 300 mg/day, one month phase IIa trial

Structure (SMILES): NCCCC(N)(C(=O)O)C(F)F (racemic) [DFMO, 2-(difluoromethyl)-DL-ornithine]
number of tumors harboring Ki-ras mutations [1]: 36%
decrease in tumor putrescine levels [2]: 90%

time of peak plasma levels (after an oral dose): roughly 3 hours
effective half-life (fasted conditions): roughly 11 hours
dose excreted in feces (following a single dose): 57%
dose excreted in urine (following a single dose): 27%
delay of plasma levels with high fat meal (taken with a high fat meal): 1 to 2 h
increase in total absorption with high fat meal (taken with a high fat meal): 10-20%
protein binding (within the clinical dose range): highly protein bound
Structure (SMILES): Cc1ccc(-c2cc(C(F)(F)F)nn2-c2ccc(S(N)(=O)=O)cc2)cc1 [celecoxib, 4-[5-(4-methyphenyl)-3-(trifluoromethyl)-1H-pyrazol-1-yl]benzenesulfonamide]

Structure (SMILES): CC[C@H]1OC(=O)[C@H](C)[C@@H](O[C@H]2C[C@@](C)(OC)[C@@H](O)[C@H](C)O2)[C@H](C)[C@@H](O[C@@H]2O[C@H](C)C[C@H](N(C)C)[C@H]2O)[C@](C)(OC)C[C@@H](C)C(=O)[C@H](C)[C@@H](O)[C@]1(C)O [clarithrymycin]
adverse effect: pseudomembranous colitis [3]: 1%
adverse effect: diarrhea ([3]; in vivo): 10%

Structure (SMILES): CC(C)Cc1ccc(C(C)C(=O)O)cc1 (stereo not shown) [ibuprofen]
PGE2 levels in flat mucosa [4]: significant decrease

Structure (SMILES): Cc1c(OCC(F)(F)F)ccnc1C[S+]([O-])c1nc2ccccc2[nH]1 (stereo not shown) [lansoprazole]
adverse effect: diarrhea ([3]; in vivo): 8%
adverse effect: headache ([3]; in vivo): 5%
adverse effect: nausea ([3]; in vivo): 3%

Structure (SMILES): Cc1ncc([N+](=O)[O-])n1CCO [metronidazole]
adverse effect: disulfiram-like reaction with alcohol ingestion ([3]; in vivo): 20%
adverse effect: rash ([3]; in vivo): 5%

Structure (SMILES): COc1ccc2[nH]c([S+]([O-])Cc3ncc(C)c(OC)c3C)nc2c1 (stereo not shown) [omeprazole]
adverse effect: dizziness ([3]; in vivo): 2%

Structure (SMILES): CN1C(C(=O)Nc2ccccn2)=C(O)c2ccccc2S1(=O)=O [piroxicam]
number of tumors harboring Ki-ras mutations [1]: 25%
